The text below walks through data of US4338314A, “[1,2]Anellated-7-phenyl-1,4-benzodiazepine and pharmaceutical compositions thereof and use for treatment of ulcers” (Kali-Chemie Pharma GmbH, priority 1978, dated 1982).

The structures appear in SMILES notation. Bounds are passed on as bounds.

Data set [1] is described as follows: Acute 7-day toxicity after a single application per os (LD50). As to conditions: mouse, in vivo; single oral dose, unfed white NMRI mice, 7 days. How it is done: The acute 7-day toxicity is determined after a single application per os in white NMRI mice which have not been fed. The calculation of the LD50 is carried out by probitananalysis by means of electronic data processing (see L. Cavalli-Sforza, Gustav-Fischer-Verlag, Stuttgart (1964), Grundbegriffe der Biometrie, Chapter 10, pages 153-190).

In data set [2] the test system is muscle tone. Description: Testing of musculatropic properties (traction test). As to conditions: Mus musculus, 2 h; oral, mice, after 120 minutes; half of animals do not touch wire with hind legs within 5 seconds. Format: in vivo. How it is done: 3. Testing of Musculatropic Properties:
In a traction test, mice are administered the test substance orally. After 120 minutes the mice are attached at the front paws to a horizontally suspended wire. The ED50 is the dose which causes exactly half of the animals not to touch the wire also with their hind legs within a period of 5 seconds, (W. Theobald et al, Arneim. Forschung 17, (1967), page 561). This test measures the influence of the test substance on the muscle tone of the test subject.

Data set [3] relates to indomethacine-induced ulcers. As to the kind of experiment: Effectiveness against indomethacine-induced ulcers in rats. Type of data set: in vivo, rats (male). The note with it: Rattus norvegicus, 1 h before 40 mg/kg indomethacine, 24 h, read-out: Ulcer induced by indomethacine, % inhibited; for inhibition in vivo at 100 mg/kg: 100 mg/kg oral; for inhibition in vivo at 200 mg/kg: 200 mg/kg oral. How it is done:
2. Effectiveness Against Indomethacine-Induced Ulcers in Rats Modified Test Procedure According to U. Jahn and R. W. Adrian, Arzneimittel Forschung, (Drug Research) 19, (1969), p. 36.:
The animals of the blank control group receive the corresponding amount by volume of the suspension medium only. One hour after the application of the test compouns, a dosage of 40 mg/kg of indomethacine contained in an amount of 0.5 ml of a suspension per 100 g animal weight are orally applied to each animal for producing ulcers. Twenty-four hours after the application of the indomethacine the animals are sacrificed.

Data set [4] has as its system central nervous system (hexobarbital sleep time). Description: Central nervous depressant properties (prolonging the hexobarbital sleep time). As to conditions: Mus musculus, 0.5 h; oral, mice, 30 minutes before 64 mg/kg hexobarbital; half of animals extend sleep by factor of 4; read-out: Prolonging hexobarbitol sleep time (ED50). Format: in vivo. How it is done:
4. Testing of Central Nervous Depressant Properties (Prolonging the Hexobarbital sleep time):
The test substance is administered orally to mice. After 30 minutes, the animals are additionally injected with hexabarbitol in an amount of 64 mg/kg. The time point of the onset of sleeping posture is determined and the duration of sleeping posture is compared with a control group treated exclusively with hexobarbitol. The dose, with which half of the animals extend the time of sleeping posture by a factor of 4 over that of the control group, is defined as ED50. (J. W. Kemp. M. Tannhauser and E. A. Swingard, Arch. Int. Pharmacodyn. 193(1971), pp 34-47).

The test system of data set [5] is central nervous system. As to the kind of experiment: Central nervous / psychopharmacological activity, side effects and toxicity, general statement.

Usually LD50 stands for the dose at which mortality reaches 50%. A lower LD50 goes with greater toxicity. For orientation: ED50 means the dose that gives a 50% effect, or the effect in half of the subjects. `Clc1ccc2c(c1)C(c1ccccc1)=NCC1COCCN21` (stereo not shown) [A] came in with an LD50 at 168 h in data set [1] of 2260 mg/kg. In addition, the 50% effective dose (ED50) in data set [2] is 285 mg/kg; in data set [4], 31.6 mg/kg. Moreover, the inhibition in vivo at 150 mg/kg in data set [3] (150 mg/kg oral) was 61%.

In the case of `Fc1ccc2c(c1)C(c1ccccc1)=NCC1COCCN21` (stereo not shown) [B], the median lethal dose (LD50) at 168 h in data set [1] was over 1370 mg/kg. Further, the 50% effective dose (ED50) in data set [2] was over 296 mg/kg; in data set [4] it was 80.3 mg/kg. Besides, the inhibition in vivo at 100 mg/kg in data set [3] was determined as 77%.

Take `Cc1ccc2c(c1)C(c1ccccc1)=NCC1COCCN21` (stereo not shown) [C]: the LD50 at 168 h in data set [1] is over 1430 mg/kg. In addition, the ED50 in data set [2] is over 316 mg/kg; in data set [4], 139 mg/kg. Further, the inhibition in vivo at 200 mg/kg in data set [3] amounted to 68%.

Molecule `Cc1ccc2c(c1)N1CCOCC1CN=C2c1ccccc1` (stereo not shown) [D] displayed an LD50 at 168 h in data set [1] of over 1470 mg/kg. The 50% effective dose (ED50) is over 316 mg/kg in data set [2] and 138 mg/kg in data set [4]. For the same molecule, the inhibition in vivo at 100 mg/kg in data set [3] was determined as 70%.

Molecule `Clc1ccc2c(c1)C(c1ccccc1Cl)=NCC1COCCN21` (stereo not shown) [E] returned a median lethal dose (LD50) at 168 h in data set [1] of over 1470 mg/kg. In addition, the ED50 was over 316 mg/kg in data set [2] and 11.8 mg/kg in data set [4]. Moreover, the inhibition in vivo at 100 mg/kg in data set [3] stood at 86%.

In the case of `COc1ccc2c(c1)N1CCOCC1CN=C2c1ccccc1` (stereo not shown) [F], in data set [1], the 50% lethal dose (LD50) at 168 h was over 1430 mg/kg. In addition, the ED50 in data set [2] is over 308 mg/kg; in data set [4] it was 202 mg/kg. Also, the inhibition in vivo at 100 mg/kg in data set [3] was 42%.

In data set [1], `Cc1cc2c(cc1Cl)N1CCOCC1CN=C2c1ccccc1` (stereo not shown) [G] returned an LD50 at 168 h of over 1520 mg/kg. In addition, the ED50 in data set [2] is over 327 mg/kg; in data set [4], 119 mg/kg. Besides, the inhibition in vivo at 200 mg/kg in data set [3] is 77%.

As to `Clc1ccc2c(c1)C(c1ccccc1)=NCC1CSCCN21` (stereo not shown) [H], the 50% lethal dose (LD50) at 168 h in data set [1] was over 1470 mg/kg. Also, the ED50 in data set [2] is 316 mg/kg; in data set [4] it was 153 mg/kg. Further, in data set [3], the inhibition in vivo at 100 mg/kg is 74%.

In data set [1], `C=CCN1CCN2c3ccc(Cl)cc3C(c3ccccc3)=NCC2C1` (stereo not shown) [I] came in with a median lethal dose (LD50) at 168 h of 1090 mg/kg. Further, the ED50 in data set [2] was over 316 mg/kg; in data set [4], 100 mg/kg. The inhibition in vivo at 200 mg/kg in data set [3] came out at 81%.

For `Clc1ccc2c(c1)C(c1ccccc1)=NCC1CN(CCc3ccccc3)CCN21` (stereo not shown) [K], in data set [1], the 50% lethal dose (LD50) at 168 h is over 1310 mg/kg. Also, the figures for the 50% effective dose (ED50) in data set [2] and in data set [4] were over 284 mg/kg and 110 mg/kg, respectively. In addition, in data set [3], the inhibition in vivo at 200 mg/kg was found to be 85%.

With `Cc1ccc2c(c1)C(c1ccccc1)=NCC1CN(C)CCN21` (stereo not shown) [L], the LD50 at 168 h in data set [1] was over 1010 mg/kg. Also, the median effective dose (ED50) is over 215 mg/kg in data set [2] and 164 mg/kg in data set [4]. Further, the inhibition in vivo at 250 mg/kg in data set [3] (250 mg/kg oral) turned out to be 70%.

Turning to `CN1C(=O)CN=C(c2ccccc2)c2cc(Cl)ccc21` [S], the values for the ED50 in data set [2] and in data set [4] were 4.2 mg/kg and 1.5 mg/kg, respectively. The inhibition in vivo at 12 mg/kg in data set [3] (12 mg/kg oral, higher doses not tolerable) was 28%.

Turning to `CN1C(=O)CN=C(c2ccccc2)c2cc(Cl)ccc21` [Substance S, 7-chloro-1-methyl-5-phenyl-1,3-dihydro-2H-1,4-benzodiazepin-2-one], the psychopharmacological effect entry in data set [5] (already with small doses) was “strong”. The “tolerability of higher doses sufficient to achieve an improved ulcer inhibiting effect” value in data set [5] (higher doses) is listed as “not tolerable”.
